The test system of this experiment is Moloney murine leukemia virus (MoLV). The experiment is described as follows: in vitro XC plaque assay (inhibition of growth and replication of murine leukemia virus in mouse SC-1 cells). As to conditions: compound added 2 hours prior to virus; for Average No. of Foci/plate: Control 36 foci/plate. It is filed as cell-based. As for the experimental part:
This assay was performed according to the method of Rowe et al. (Virology, 1970, 42, 1136-39) as previously described by L. Hsu, et al. (J. Virological Methods, 1980, 1, 167-77) and T. L. Bowlin and M. R. Proffitt (J. Interferon Res., 1983, 3(1), 19-31). Mouse SC-1 cells (fibroblast) (10⁵) were seeded into each well of 6-well cluster plates (Costar #3506) in 4 ml Minimum Essential Medium (MEM) with 10% Fetal Calf Serum (FCS). Following an 18 hour incubation period (37°C), Moloney murine leukemia virus (MoLV) was applied at a predetermined titer to give optimal (i.e. countable) numbers of virus plaques. Compounds were added 2 hours prior to addition of the virus. Three days later the culture medium was removed, the SC-1 cell monolayers were exposed to UV irradiation (1800 ergs), and rat XC cells […] were seeded into each well in 4 ml MEM. Following an additional 3 day incubation (37°C), these cells were fixed with ethyl alcohol (95%) and stained with 0.3% crystal violet. Plaques were then counted under low magnification.

The term inhibition denotes the percentage by which the read-out fell short of the control. As for `Nc1ccn([C@@H]2O[C@H](CO)[C@@H](O)C2(F)F)c(=O)n1` [2′-Deoxy-2′,2′-Difluorocytidine, 2′-deoxy-2′,2′-difluorocytidine], the “Average No. of Foci/plate” value (Concentration 0.0025 µg/ml) is 28, the “Average No. of Foci/plate” value (Concentration 0.005 µg/ml) is on record as 15, the “Average No. of Foci/plate” value (Concentration 0.01 µg/ml) amounted to 0 and the “Average No. of Foci/plate” value (Concentration 0.1 µg/ml) was 0. For the same compound, the inhibition at 0.0025 µg/mL (Murine leukemia virus, SC1, Concentration 0.0025 µg/ml) is 22%. Further, at 0.005 µg/mL the inhibition (Murine leukemia virus, SC1, Concentration 0.005 µg/ml) was 58%. Moreover, for the setting “Murine leukemia virus, SC1, Concentration 0.01 µg/ml”, at 0.01 µg/mL the inhibition was 100%. The inhibition at 0.1 µg/mL (Murine leukemia virus, SC1, Concentration 0.1 µg/ml) was 100%.

`Cc1cn([C@H]2C[C@H](N=[N+]=[N-])[C@@H](CO)O2)c(=O)[nH]c1=O` [AZT, 3′-azido-3′-deoxythymidine, reference compound]: the “Average No. of Foci/plate” value (Concentration 0.001 µg/ml) was determined as 18. For the same compound, at 0.001 µg/mL the inhibition (Murine leukemia virus, SC1, Concentration 0.001 µg/ml) was 50%.

(Values after patent publication EP0345751A1, “Anti-retroviral diflourinated nucleosides” (MERRELL DOW PHARMACEUTICALS INC., priority 1988, dated 1989).)
